In patent publication US12371428B2 (Exelixis, Inc., priority 2019, dated 2025):
Like-named read-outs stand apart in the source and are kept apart here.

Legend:
[1] = target: Met (phospho-Met, HGF-stimulated PC-3 prostate cancer cells) (Homo sapiens (Human), UniProt P08581); assay: Met autophosphorylation ELISA in PC-3 cells (Example F); assay type: cell-based; conditions: cellular activity; Met autophosphorylation ELISA in PC-3 cells; read-out: c-Met IC50
How it was run: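 Compounds were tested on HGF-stimulated PC-3 cells. After 24 h culture and 3 h serum starvation, cells got compound for 1 h and 100 ng/mL HGF for 10 min, and Met tyrosine phosphorylation was measured by ELISA.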

[2] = target: Human MER (residues 528-999) (Homo sapiens (Human), UniProt Q12866); assay: Human Mer kinase assay, HTRF KinEase (Example C-2); assay type: biochemical
Method: (§1) Kinase activity and compound inhibition were also investigated using the HTRF® KinEase assay (Cisbio Cat #62TKOPEB) per manufacturer's instructions. In short, compounds were delivered in 300 nL volumes at 10 different concentrations in DMSO (3% final) to empty 384-well assay plates (Corning cat #3824). A mixture of enzyme, […] biotynlated peptide substrate, and buffer in 10 μL volume was added. The assay was started upon the addition of ATP (at Km). The 10 μL reaction was incubated at room temperature. The reaction was stopped upon the addition of detection buffer containing streptavidin-XL665 ([…]) and TK antibody-Eu3+([…]). After a 60 min incubation at room temperature, the fluorescence at 665 nm and 620 nm was read on an Envision microplate reader (Perkin Elmer).
(§2) Kinase activity normalized to DMSO (100% activity) and reference compound at […] and (0% activity) was calculated using the fluorescence ratio […]. IC50 values were calculated by nonlinear regression analysis using a 4-parameter logistic curve fit in ActivityBase XE (IDBS).
Example C-2: Human MER (residues 528-999; CarnaBio, 1 ng/well) was also incubated with enzymatic buffer (Cisbio) supplemented with 5 mM MgCl2 and 1 mM DTT. The mixture was added to the pre-plated compounds. The reaction was initiated upon addition of ATP at Km (40 μM). The reaction was incubated at room temperature for 60 min and stopped upon the addition of SA-XL665 and TK-antibody both diluted in EDTA-containing kinase detection buffer (Cisbio). The kinase activity was calculated as stated above and the IC50 values were reported.

[3] = target: Human KDR (residues 790-1356) (Homo sapiens (Human), UniProt P35968); assay: Human KDR kinase assay, HTRF KinEase (Example B-2); assay type: biochemical
Chain of Human KDR (residues 790-1356) (P35968 790-1356): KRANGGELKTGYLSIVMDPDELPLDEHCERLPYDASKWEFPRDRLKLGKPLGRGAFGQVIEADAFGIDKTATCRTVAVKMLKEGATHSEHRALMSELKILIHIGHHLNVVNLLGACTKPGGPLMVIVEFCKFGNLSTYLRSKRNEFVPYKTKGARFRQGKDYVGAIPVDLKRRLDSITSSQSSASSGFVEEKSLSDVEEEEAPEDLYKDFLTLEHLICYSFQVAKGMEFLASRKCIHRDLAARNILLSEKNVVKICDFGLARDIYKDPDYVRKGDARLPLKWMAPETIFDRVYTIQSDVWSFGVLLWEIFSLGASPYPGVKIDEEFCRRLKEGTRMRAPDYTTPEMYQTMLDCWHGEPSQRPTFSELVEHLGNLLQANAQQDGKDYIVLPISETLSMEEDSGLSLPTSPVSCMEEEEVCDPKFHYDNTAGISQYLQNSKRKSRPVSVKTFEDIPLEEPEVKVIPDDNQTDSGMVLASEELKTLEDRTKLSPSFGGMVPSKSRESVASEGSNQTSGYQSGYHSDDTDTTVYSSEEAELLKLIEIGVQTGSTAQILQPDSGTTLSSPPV
Method: as §1, §2
(§3) Example B-2: Human KDR (residues 790-1356; CarnaBio, 0.1 ng/well) was also incubated with enzymatic buffer (Cisbio) supplemented with 5 mM MgCl2, 1 mM MnCl2, and 1 mM DTT. The mixture was added to the pre-plated compounds. The reaction was initiated upon addition of ATP at Km (4.0 μM). The reaction was incubated at room temperature for 40 min and stopped upon the addition of SA-XL665 and TK-antibody both diluted in EDTA-containing kinase detection buffer (Cisbio). The kinase activity was calculated as stated above and the IC50 values were reported.

[4] = target: Mer (phospho-Mer, MERTK-transfected 293A cells) (Homo sapiens (Human), UniProt Q12866); assay: Mer autophosphorylation ELISA in transient transfected 293A cells (Example H); assay type: cell-based; conditions: cellular activity; Mer autophosphorylation ELISA in transient transfected 293A cells
Chain of Mer (phospho-Mer, MERTK-transfected 293A cells) (Q12866 21-999): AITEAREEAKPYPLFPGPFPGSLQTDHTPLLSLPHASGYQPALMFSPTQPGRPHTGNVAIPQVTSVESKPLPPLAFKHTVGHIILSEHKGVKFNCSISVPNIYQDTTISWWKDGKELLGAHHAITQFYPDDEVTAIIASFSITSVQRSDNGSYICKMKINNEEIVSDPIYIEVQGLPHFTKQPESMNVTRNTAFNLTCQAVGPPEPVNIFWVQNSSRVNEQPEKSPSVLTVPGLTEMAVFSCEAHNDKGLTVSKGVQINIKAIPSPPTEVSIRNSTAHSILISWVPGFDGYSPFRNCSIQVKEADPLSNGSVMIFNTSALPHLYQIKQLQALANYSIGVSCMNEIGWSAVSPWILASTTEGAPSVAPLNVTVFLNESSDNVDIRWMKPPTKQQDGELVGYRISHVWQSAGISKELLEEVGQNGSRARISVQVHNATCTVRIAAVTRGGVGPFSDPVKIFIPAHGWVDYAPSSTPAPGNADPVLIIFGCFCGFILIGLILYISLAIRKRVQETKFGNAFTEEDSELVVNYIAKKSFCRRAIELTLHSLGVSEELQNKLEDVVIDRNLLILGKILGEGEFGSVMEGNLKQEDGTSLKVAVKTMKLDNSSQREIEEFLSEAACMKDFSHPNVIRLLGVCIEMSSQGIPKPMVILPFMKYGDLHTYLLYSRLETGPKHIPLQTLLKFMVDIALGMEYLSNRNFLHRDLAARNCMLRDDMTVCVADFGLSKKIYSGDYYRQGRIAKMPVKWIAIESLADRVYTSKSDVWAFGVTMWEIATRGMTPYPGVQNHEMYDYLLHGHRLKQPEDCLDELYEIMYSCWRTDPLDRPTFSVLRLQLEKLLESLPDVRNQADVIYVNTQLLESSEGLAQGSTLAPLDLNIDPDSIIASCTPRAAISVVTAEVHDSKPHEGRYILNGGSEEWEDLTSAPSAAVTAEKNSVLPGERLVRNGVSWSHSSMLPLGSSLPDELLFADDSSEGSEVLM
How it was run: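 Inhibition of cellular Mer autophosphorylation is determined in 293A cells transiently expressing human MERTK after 1 h compound exposure (8 concentrations, serum-free, 0.3% DMSO). Phospho-Mer in clarified lysates is measured by ELISA, with DMSO and reference-inhibitor wells defining the 100% and 0% activity limits.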

[5] = target: KDR (phospho-KDR, VEGF165-stimulated HUVEC cells) (Homo sapiens (Human), UniProt P35968); assay: KDR autophosphorylation ELISA in HUVEC cells (Example G); assay type: cell-based; conditions: cellular activity; KDR autophosphorylation ELISA in HUVEC cells
Chain of KDR (phospho-KDR, VEGF165-stimulated HUVEC cells) (P35968 20-1356): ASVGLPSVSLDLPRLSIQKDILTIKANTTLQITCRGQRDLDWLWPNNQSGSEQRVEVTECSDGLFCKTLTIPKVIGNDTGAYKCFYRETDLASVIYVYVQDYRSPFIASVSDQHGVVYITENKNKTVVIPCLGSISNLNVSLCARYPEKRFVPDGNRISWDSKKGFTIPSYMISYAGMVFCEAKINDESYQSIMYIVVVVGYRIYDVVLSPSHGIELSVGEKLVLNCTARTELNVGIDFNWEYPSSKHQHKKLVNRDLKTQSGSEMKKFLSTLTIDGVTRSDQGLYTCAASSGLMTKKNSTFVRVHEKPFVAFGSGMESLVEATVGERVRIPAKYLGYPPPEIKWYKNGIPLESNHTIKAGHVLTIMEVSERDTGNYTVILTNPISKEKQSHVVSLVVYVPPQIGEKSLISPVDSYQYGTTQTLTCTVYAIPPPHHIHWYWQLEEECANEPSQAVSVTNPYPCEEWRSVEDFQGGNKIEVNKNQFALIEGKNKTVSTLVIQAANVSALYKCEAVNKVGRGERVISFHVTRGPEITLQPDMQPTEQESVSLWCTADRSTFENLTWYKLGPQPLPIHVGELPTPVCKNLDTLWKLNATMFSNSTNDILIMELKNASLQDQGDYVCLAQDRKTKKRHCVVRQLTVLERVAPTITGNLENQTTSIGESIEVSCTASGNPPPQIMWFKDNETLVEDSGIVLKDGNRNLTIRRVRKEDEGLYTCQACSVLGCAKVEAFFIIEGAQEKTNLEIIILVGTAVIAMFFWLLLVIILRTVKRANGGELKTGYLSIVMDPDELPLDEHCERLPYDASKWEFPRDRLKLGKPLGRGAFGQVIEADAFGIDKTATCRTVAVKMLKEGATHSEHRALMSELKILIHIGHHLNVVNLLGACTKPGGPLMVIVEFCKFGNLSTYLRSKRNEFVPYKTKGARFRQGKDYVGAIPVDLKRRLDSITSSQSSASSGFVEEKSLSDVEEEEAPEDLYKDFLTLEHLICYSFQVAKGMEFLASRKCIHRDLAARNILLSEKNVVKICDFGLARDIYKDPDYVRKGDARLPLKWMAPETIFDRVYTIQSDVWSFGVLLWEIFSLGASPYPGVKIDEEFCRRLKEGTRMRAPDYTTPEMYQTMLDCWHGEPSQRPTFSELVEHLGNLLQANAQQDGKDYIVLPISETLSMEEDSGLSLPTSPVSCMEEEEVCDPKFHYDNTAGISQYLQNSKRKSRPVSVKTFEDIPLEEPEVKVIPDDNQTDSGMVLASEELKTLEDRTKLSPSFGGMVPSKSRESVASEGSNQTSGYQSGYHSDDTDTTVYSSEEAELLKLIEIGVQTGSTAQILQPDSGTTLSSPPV
How it was run: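 Cells seeded, grown 24 h at 37 °C, starved 24 h serum-free; cpd 8-pt curve, 0.3% DMSO, 1 h; VEGF165 100 ng/mL, 5 min; cold PBS wash, lysis with orthovanadate and protease/phosphatase inhibitors; pKDR ELISA; IC50 by 4-parameter logistic regression.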

[6] = target: Human MET (residues 956-1390) (Homo sapiens (Human), UniProt P08581); assay: Human Met kinase assay, HTRF KinEase (Example D-2); assay type: biochemical; conditions: read-out: c-Met IC50
Chain of Human MET (residues 956-1390) (P08581 956-1390): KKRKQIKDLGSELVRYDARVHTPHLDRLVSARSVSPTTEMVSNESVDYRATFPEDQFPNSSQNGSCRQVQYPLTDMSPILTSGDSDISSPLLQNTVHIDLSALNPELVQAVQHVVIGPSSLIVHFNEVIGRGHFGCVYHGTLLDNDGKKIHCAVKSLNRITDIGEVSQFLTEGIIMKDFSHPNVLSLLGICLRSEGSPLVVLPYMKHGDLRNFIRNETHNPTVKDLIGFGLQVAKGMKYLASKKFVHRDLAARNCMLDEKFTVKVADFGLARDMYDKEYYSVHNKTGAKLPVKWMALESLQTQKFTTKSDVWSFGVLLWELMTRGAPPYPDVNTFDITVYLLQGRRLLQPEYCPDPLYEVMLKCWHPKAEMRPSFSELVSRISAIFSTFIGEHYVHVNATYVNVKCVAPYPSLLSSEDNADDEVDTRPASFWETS
Method: as §1, §2
as §3, with “D-2:” for “B-2:”, “MET” for “KDR”, “956-1390;” for “790-1356;”, “DTT” for “MnCl2,”, “MnCl2.” for “DTT.”, “The reaction was initiated upon addition of ATP at Km (4.0 μM).” left out

[7] = protocol of Example C-2 (other compounds)
[8] = protocol of Example B-2 (other compounds)
[9] = protocol of Example D-2 (other compounds)

Chain of Met (phospho-Met, HGF-stimulated PC-3 prostate cancer cells) (P08581 25-1390): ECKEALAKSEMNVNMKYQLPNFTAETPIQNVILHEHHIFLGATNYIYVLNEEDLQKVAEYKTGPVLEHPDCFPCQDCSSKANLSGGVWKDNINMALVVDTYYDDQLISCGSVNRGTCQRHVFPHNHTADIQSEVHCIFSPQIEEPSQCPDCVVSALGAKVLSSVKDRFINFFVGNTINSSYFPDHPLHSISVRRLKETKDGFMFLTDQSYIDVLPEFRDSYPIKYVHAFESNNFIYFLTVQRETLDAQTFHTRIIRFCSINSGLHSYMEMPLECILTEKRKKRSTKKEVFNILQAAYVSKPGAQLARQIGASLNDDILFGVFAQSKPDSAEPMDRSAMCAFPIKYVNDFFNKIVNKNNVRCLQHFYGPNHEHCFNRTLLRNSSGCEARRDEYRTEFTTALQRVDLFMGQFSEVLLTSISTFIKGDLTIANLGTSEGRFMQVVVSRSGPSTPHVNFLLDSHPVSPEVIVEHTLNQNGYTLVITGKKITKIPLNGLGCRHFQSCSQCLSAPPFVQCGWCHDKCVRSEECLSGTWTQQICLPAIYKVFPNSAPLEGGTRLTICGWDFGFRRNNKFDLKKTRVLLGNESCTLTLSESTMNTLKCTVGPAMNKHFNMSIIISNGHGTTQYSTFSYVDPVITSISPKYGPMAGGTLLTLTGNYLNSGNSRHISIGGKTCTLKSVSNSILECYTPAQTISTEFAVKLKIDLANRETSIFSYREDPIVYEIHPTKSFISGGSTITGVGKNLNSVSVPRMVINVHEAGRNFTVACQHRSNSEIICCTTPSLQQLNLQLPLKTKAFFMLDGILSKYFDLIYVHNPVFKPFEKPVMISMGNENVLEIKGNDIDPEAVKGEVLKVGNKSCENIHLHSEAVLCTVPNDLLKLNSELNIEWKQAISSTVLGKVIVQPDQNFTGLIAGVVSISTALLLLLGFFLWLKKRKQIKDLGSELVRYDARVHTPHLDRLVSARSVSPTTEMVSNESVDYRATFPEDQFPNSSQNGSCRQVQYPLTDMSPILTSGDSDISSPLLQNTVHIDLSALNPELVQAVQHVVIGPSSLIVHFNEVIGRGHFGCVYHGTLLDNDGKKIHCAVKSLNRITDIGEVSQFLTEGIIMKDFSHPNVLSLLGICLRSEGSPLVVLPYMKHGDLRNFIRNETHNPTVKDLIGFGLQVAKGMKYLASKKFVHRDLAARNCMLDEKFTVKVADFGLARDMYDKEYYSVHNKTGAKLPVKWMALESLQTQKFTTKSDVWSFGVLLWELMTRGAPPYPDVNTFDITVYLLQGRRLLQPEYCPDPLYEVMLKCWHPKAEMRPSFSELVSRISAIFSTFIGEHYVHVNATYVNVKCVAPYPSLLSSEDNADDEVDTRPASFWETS

Row | Compound | IC50 [1] [nM] | IC50 [2, 7] [nM] | IC50 [3, 8] [nM] | IC50 [4] [nM] | IC50 [5] [nM] | IC50 ([2]; protocol of Example C-2) [nM] | IC50 ([3]; protocol of Example B-2) [nM] | IC50 [6, 9] [nM] | IC50 ([6]; protocol of Example D-2) [nM]
1 | COc1cc2nccc(Oc3ccc(NC(=O)c4c(C)c(Cl)c(C)n(-c5ccc(F)cc5)c4=O)cc3F)c2nc1OC [Compound 308, 5-Chloro-N-[4-[(6,7-dimethoxy-1,5-naphthyridin-4-yl)oxy]-3-fluorophenyl]-1-(4-fluorophenyl)-4,6-dimethyl-2-oxopyridine-3-carboxamide] | < 100 | < 100 | > 300 | < 100 | < 100 |  |  |  | 
2 | CNC(=O)Cc1cc2c(Oc3ccc(NC(=O)c4cnc(C)c(-c5ccc(F)cc5)c4O)cc3F)ccnc2cc1OC [Compound 376, N-[3-fluoro-4-[7-methoxy-6-[2-(methylamino)-2-oxoethyl]quinolin-4-yl]oxyphenyl]-5-(4-fluorophenyl)-4-hydroxy-6-methylpyridine-3-carboxamide] | < 100 | < 100 | < 100 | < 100 | < 100 |  |  |  | 
3 | COc1cc2nccc(Oc3ccc(NC(=O)c4ccc(CO)n(-c5ccc(F)cc5)c4=O)cc3F)c2nc1OC [Compound 357, N-[4-[(6,7-dimethoxy-1,5-naphthyridin-4-yl)oxy]-3-fluorophenyl]-1-(4-fluorophenyl)-6-(hydroxymethyl)-2-oxopyridine-3-carboxamide] | < 100 | < 100 | < 100 | < 100 |  |  |  |  | 
4 | COc1cc2nccc(Oc3ccc(NC(=O)c4c5n(cc(-c6ccc(F)cc6)c4=O)CCC5)cc3F)c2nc1OC [Compound 404, N-[4-[(6,7-dimethoxy-1,5-naphthyridin-4-yl)oxy]-3-fluorophenyl]-6-(4-fluorophenyl)-7-oxo-2,3-dihydro-1H-indolizine-8-carboxamide] | < 100 | < 100 |  | < 100 | < 100 |  |  | < 100 | 
5 | COc1cnc2c(Oc3ccc(NC(=O)c4c5n(cc(-c6ccc(F)cc6)c4=O)CCC5)cc3F)ccnc2c1 [Compound 405, N-[3-fluoro-4-[(7-methoxy-1,5-naphthyridin-4-yl)oxy]phenyl]-6-(4-fluorophenyl)-7-oxo-2,3-dihydro-1H-indolizine-8-carboxamide] | < 100 | < 100 |  | < 100 | > 300 |  |  | < 100 | 
6 | COc1cnc2c(Oc3ccc(NC(=O)c4cnc(C)c(-c5ccc(F)cc5)c4O)cc3)ccnc2c1 [Compound 147, 5-(4-Fluorophenyl)-4-hydroxy-N-[4-[(7-methoxy-1,5-naphthyridin-4-yl)oxy]phenyl]-6-methylpyridine-3-carboxamide] | < 100 | < 100 |  | < 100 | < 100 |  |  | < 100 | 
7 | CNn1cc(C(=O)Nc2ccc(Oc3ccnc4cc(OC)c(OC)nc34)c(F)c2)c(=O)c(-c2ccc(F)cc2)c1 [Compound 135, N-[4-[(6,7-Dimethoxy-1,5-naphthyridin-4-yl)oxy]-3-fluorophenyl]-5-(4-fluorophenyl)-1-(methylamino)-4-oxopyridine-3-carboxamide] | < 100 | < 100 |  | < 100 | < 100 |  |  | < 100 | 
8 | COc1nc2c(Oc3ccc(NC(=O)c4cn(C(C)C)c(C)c(-c5ccc(F)cc5)c4=O)cc3F)ccnc2cc1-c1cnn(C(F)F)c1 [Compound 609, N-[4-[[7-[1-(Difluoromethyl)pyrazol-4-yl]-6-methoxy-1,5-naphthyridin-4-yl]oxy]-3-fluorophenyl]-5-(4-fluorophenyl)-6-methyl-4-oxo-1-propan-2-ylpyridine-3-carboxamide] | < 100 |  |  | < 100 | < 100 | < 100 |  |  | < 100
9 | COc1cc2nccc(Oc3ccc(NC(=O)c4cn(N(C)C)cc(-c5ccc(F)cc5)c4=O)cc3F)c2nc1OC [Compound 136, N-[4-[(6,7-Dimethoxy-1,5-naphthyridin-4-yl)oxy]-3-fluorophenyl]-1-(dimethylamino)-5-(4-fluorophenyl)-4-oxopyridine-3-carboxamide] | < 100 | < 100 |  | < 100 | < 100 |  |  | < 100 | 

The remaining lines, values ahead:

Row | IC50 [1] [nM] | IC50 [2, 7] [nM] | IC50 [3, 8] [nM] | IC50 [4] [nM] | IC50 [5] [nM] | IC50 ([2]; protocol of Example C-2) [nM] | IC50 ([3]; protocol of Example B-2) [nM] | IC50 [6, 9] [nM] | IC50 ([6]; protocol of Example D-2) [nM] | Compound
10 | < 100 | < 100 | > 300 | < 100 | 100 to 300 |  |  |  |  | Cc1ccc(C(=O)Nc2ccc(Oc3ccnc4cccnc34)c(F)c2)c(=O)n1-c1ccc(F)cc1 [Compound 302, N-[3-Fluoro-4-(1,5-naphthyridin-4-yloxy)phenyl]-1-(4-fluorophenyl)-6-methyl-2-oxopyridine-3-carboxamide]
11 | < 100 | < 100 | > 300 | < 100 | > 300 |  |  |  |  | COc1cnc2c(Oc3ccc(NC(=O)c4c(C)c(Cl)c(C)n(-c5ccc(F)cc5)c4=O)cc3F)ccnc2c1 [Compound 309, 5-Chloro-N-[3-fluoro-4-[(7-methoxy-1,5-naphthyridin-4-yl)oxy]phenyl]-1-(4-fluorophenyl)-4,6-dimethyl-2-oxopyridine-3-carboxamide]
12 | < 100 |  |  | < 100 | < 100 | < 100 | < 100 |  |  | CCOc1c(C(=O)Nc2ccc(Oc3ccnc4cc(OC)c(OC)nc34)c(F)c2)nnc(C)c1-c1ccc(F)cc1 [Compound 569, N-[4-[(6,7-Dimethoxy-1,5-naphthyridin-4-yl)oxy]-3-fluorophenyl]-4-ethoxy-5-(4-fluorophenyl)-6-methylpyridazine-3-carboxamide]
13 | < 100 | < 100 | < 100 | < 100 | < 100 |  |  |  |  | COc1cc2nccc(Oc3ccc(NC(=O)c4c(OC)c(C)cn(-c5ccc(F)cc5)c4=O)cc3F)c2nc1OC [Compound 372, N-[4-[(6,7-dimethoxy-1,5-naphthyridin-4-yl)oxy]-3-fluorophenyl]-1-(4-fluorophenyl)-4-methoxy-5-methyl-2-oxopyridine-3-carboxamide]
14 | < 100 | > 300 | > 300 |  | > 300 |  |  |  |  | COc1cc2nccc(Oc3ccc(NC(=O)c4cnc(C)n(-c5ccc(F)cc5)c4=O)cc3)c2nc1OC [Compound 267, N-[4-[(6,7-Dimethoxy-1,5-naphthyridin-4-yl)oxy]phenyl]-1-(4-fluorophenyl)-2-methyl-6-oxopyrimidine-5-carboxamide]
15 | < 100 | 100 to 300 | > 300 | < 100 | > 300 |  |  |  |  | COc1cnc2c(Oc3ccc(NC(=O)c4c(C)c(Cl)c(C)n(-c5ccc(F)cc5)c4=O)cc3)ccnc2c1 [Compound 310, 5-Chloro-1-(4-fluorophenyl)-N-[4-[(7-methoxy-1,5-naphthyridin-4-yl)oxy]phenyl]-4,6-dimethyl-2-oxopyridine-3-carboxamide]
